# Values of other authors as cited in patent publication US6440950B1, “Selective and non-invasive visualization or treatment of vasculature” (The Johns Hopkins University, priority 1994, dated 2002).
# Tests used:
# [1] = in a number of species
# [2] = in vivo
# [3] = used intraperitonially in a few patients
substance,measurement,setting,value
aluminum phthalocyanine tetrasulfonate [AlPcS4],toxicity,[1],non-toxic
same,time to removal from the blood,[2],≤ 24 h
same,water solubility,,water soluble
same,side effects,[3],no side effects have been reported
